Results from patent US12667101B2, “Picolinamide derivatives useful as agricultural fungicides” (GLOBACHEM NV, priority 2019, dated 2026).
In brackets after ≈: the same amount, converted by molar mass.

tested on: Zymoseptoria tritici; test: Fungicidal activity screen in amended agar, 96 well plates; assay type: cell-based; conditions: 168 h, 1% potato dextrose agar amended to 20, 2, 0.2 and 0.02 ppm, 10,000 spores/mL, 18° C., assessed after 7 days, read-out: Zymoseptoria (EC50 ranking of fungal growth vs DMSO controls)
Protocol: Compounds were screened in 96 well plates with 10 compounds per plate. Each compound was screened using agar amended to 20, 2, 0.2 and 0.02 ppm of the test material. Proline at 50 and 10 ppm and 0.2% DMSO were used respectively as positive and negative controls. Each test concentration and standard were tested twice on a plate.
Compounds were screened against Zymoseptoria tritici. The agar used in the test was 1% potato dextrose agar. Sufficient spores were added to the appropriate agar to give 10,000 spores/mL agar.
A ×10 stock solution in 2% DMSO was produced for each dose i.e. 200, 20, 2 and 0.2 ppm, and 10 μl of this added to the appropriate wells on the plate. An equivalent amount of 2% DMSO and Proline stock at 500 and 100 ppm were added for the controls. To each well, 90 μl of the appropriate agar spore suspension was added to give the final well concentrations outlined in the first paragraph.
Plates were incubated at room temperature (18° C.) and assessed after 7 days.
The amount of fungal growth in each well was compared to the DMSO controls and scored according to the following key: • A—EC50<2 ppm • B—2≤EC50<20 • C—EC50≥20 • D—No activity detected at the highest dose tested • NT—Not tested

| SMILES | EC50 [µg/mL] |
| --- | --- |
| COc1ccccc1Oc1ccc2cc(-n3c(=S)oc4c(OC)ccnc4c3=O)ccc2n1 [Example 41, 8-methoxy-3-(2-(2-methoxyphenoxy)quinolin-6-yl)-2-thioxo-2,3-dihydro-4H-pyrido[2,3-e][1,3]oxazin-4-one] | ≥ 20 |
| COc1ccnc2c(=O)n(-c3ccc4nc(Sc5ccccc5Cl)ccc4c3)c(=S)oc12 [Example 43, 3-(2-((2-chlorophenyl)thio)quinolin-6-yl)-8-methoxy-2-thioxo-2,3-dihydro-4H-pyrido[2,3-e][1,3]oxazin-4-one] | ≥ 20 |
| COc1ccnc(C(=O)Nc2ccc3nc(N(C)c4cccnc4Cl)ccc3c2)c1OC(C)=O [Example 34, 2-((2-((2-chloropyridin-3-yl)(methyl)amino)quinolin-6-yl)carbamoyl)-4-methoxypyridin-3-yl acetate] | ≥ 20 |
| COc1ccnc2c(=O)n(-c3ccc4nc(Oc5ccccc5Cl)ccc4c3)c(=S)oc12 [Example 40, 3-(2-(2-chlorophenoxy)quinolin-6-yl)-8-methoxy-2-thioxo-2,3-dihydro-4H-pyrido[2,3-e][1,3]oxazin-4-one] | < 2 |
| COc1ccnc(C(=O)Nc2ccc3nc(Oc4cccnc4Cl)ccc3c2)c1O [Example 27, N-(2-((2-chloropyridin-3-yl)oxy)quinolin-6-yl)-3-hydroxy-4-methoxypicolinamide] | ≥ 20 |
| CCOc1ccc2cc(NC(=O)c3nccc(OC)c3O)ccc2n1 [Example 1, N-(2-ethoxyquinolin-6-yl)-3-hydroxy-4-methoxypicolinamide] | 2 to 20 (≈ 5.89 to 58.9 µM) |
| COc1ccnc(C(=O)Nc2ccc3nc(N(C)c4ccccc4Cl)ccc3c2)c1O [Example 23, N-(2((2-chlorophenyl)(methyl)amino)quinolin-6-yl)-3-hydroxy-4-methoxypicolinamide] | < 2 |
| COc1ccnc(C(=O)Nc2ccc3nc(Oc4cccnc4Cl)ccc3c2)c1OC(C)=O [Example 36, 2-((2-((2-chloropyridin-3-yl)oxy)quinolin-6-yl)carbamoyl)-4-methoxypyridin-3-yl acetate] | ≥ 20 |
| COc1ccnc(C(=O)Nc2ccc3nc(N(C)c4ccccc4Cl)ccc3c2)c1OC(C)=O [Example 32, 2-((2-((2-chlorophenyl)(methyl)amino)quinolin-6-yl)carbamoyl)-4-methoxypyridin-3-yl acetate] | < 2 |
| COc1ccnc(C(=O)Nc2ccc3nc(Sc4ccccc4Cl)ccc3c2)c1O [Example 26, N-(2-((2-chlorophenyl)thio)quinolin-6-yl)-3-hydroxy-4-methoxypicolinamide] | < 2 |
| COc1ccnc(C(=O)Nc2ccc3nc(OC(C)C)ccc3c2)c1O [Example 5, 3-hydroxy-N-(2-isopropoxyquinolin-6-yl)-4-methoxypicolinamide] | < 2 |
| COc1ccnc(C(=O)Nc2ccc3nc(OC(C)C(C)C)ccc3c2)c1O (stereo not drawn) [Example 6, 3-hydroxy-4-methoxy-N-(2-((3-methylbutan-2-yl)oxy)quinolin-6-yl)picolinamide] | < 2 |
| COc1ccnc2c(=O)n(-c3ccc4nc(N(C)c5ccccc5Cl)ccc4c3)c(=S)oc12 [Example 42, 3-(2-((2-chlorophenyl)(methyl)amino)quinolin-6-yl)-8-methoxy-2-thioxo-2,3-dihydro-4H-pyrido[2,3-e][1,3]oxazin-4-one] | 2 to 20 (≈ 4.19 to 41.9 µM) |
| COc1ccnc(C(=O)Nc2ccc3nc(N(C)c4ccc(F)cc4)ccc3c2)c1O [Example 8, N-(2-((4-fluorophenyl)(methyl)amino)quinolin-6-yl)-3-hydroxy-4-methoxypicolinamide] | < 2 |
| COc1ccnc(C(=O)Nc2ccc3nc(Sc4cccnc4Cl)ccc3c2)c1OC(C)=O [Example 35, 2-((2-((2-chloropyridin-3-yl)thio)quinolin-6-yl)carbamoyl)-4-methoxypyridin-3-yl acetate] | 2 to 20 |
| COc1ccnc(C(=O)Nc2ccc3nc(Oc4ccc(F)cc4)ccc3c2)c1OC(C)=O [Example 19, 2-((2-(4-fluorophenoxy)quinolin-6-yl)carbamoyl)-4-methoxypyridin-3-yl acetate] | < 2 |
| CCC(C)Oc1ccc2cc(NC(=O)c3nccc(OC)c3O)ccc2n1 (stereo not drawn) [Example 11, N-(2-(sec-butoxy)quinolin-6-yl)-3-hydroxy-4-methoxypicolinamide] | < 2 |
| COc1ccnc(C(=O)Nc2ccc3cc(-c4ccccc4)ccc3n2)c1O [Example 16, 3-hydroxy-4-methoxy-N-(6-phenylquinolin-2-yl)picolinamide] | 2 to 20 (≈ 5.39 to 53.9 µM) |
| COc1ccnc(C(=O)Nc2ccc3nc(Sc4ccc(F)cc4)ccc3c2)c1O [Example 9, N-(2-((4-fluorophenyl)thio)quinolin-6-yl)-3-hydroxy-4-methoxypicolinamide] | < 2 |
| COc1ccnc(C(=O)Nc2ccc3cc(Br)ccc3n2)c1OC(C)=O [Example 17, 2-((6-bromoquinolin-2-yl)carbamoyl)-4-methoxypyridin-3-yl acetate] | 2 to 20 |
| COc1ccnc2c(=O)n(-c3ccc4nc(Oc5cccnc5Cl)ccc4c3)c(=S)oc12 [Example 44, 3-(2-((2-chloropyridin-3-yl)oxy)quinolin-6-yl)-8-methoxy-2-thioxo-2,3-dihydro-4H-pyrido[2,3-e][1,3]oxazin-4-one] | ≥ 20 |
| COc1ccnc2c(=O)n(-c3ccc4nc(N(C)c5cccnc5Cl)ccc4c3)c(=S)oc12 [Example 46, 3-(2-((2-chloropyridin-3-yl)(methyl)amino)quinolin-6-yl)-8-methoxy-2-thioxo-2,3-dihydro-4H-pyrido[2,3-e][1,3]oxazin-4-one] | ≥ 20 |
| CCCCCc1cc(Oc2ccc(F)cc2)nc2ccc(NC(=O)c3nccc(OC)c3OC(C)=O)cc12 [Example 31, 2-((2-(4-fluorophenoxy)-4-pentylquinolin-6-yl)carbamoyl)-4-methoxypyridin-3-yl acetate] | ≥ 20 |
| COc1ccnc(C(=O)Nc2ccc3cc(-c4ccccc4)ccc3n2)c1OC(C)=O [Example 18, 4-methoxy-2-((6-phenylquinolin-2-yl)carbamoyl)pyridin-3-yl acetate] | 2 to 20 |
| COc1ccnc(C(=O)Nc2ccc3nc(Sc4cccnc4Cl)ccc3c2)c1O [Example 28, N-(2-((2-chloropyridin-3-yl)thio)quinolin-6-yl)-3-hydroxy-4-methoxypicolinamide] | ≥ 20 |
| COc1ccnc(C(=O)Nc2ccc3nc(N(C)c4cccnc4Cl)ccc3c2)c1O [Example 25, N-(2-((2-chloropyridin-3-yl)(methyl)amino)quinolin-6-yl)-3-hydroxy-4-methoxypicolinamide] | 2 to 20 (≈ 4.59 to 45.9 µM) |
| COc1ccnc(C(=O)Nc2ccc3nc(OC(C)C)ccc3c2)c1OC(C)=O [Example 47, 2-((2-isopropoxyquinolin-6-yl)carbamoyl)-4-methoxypyridin-3-yl acetate] | < 2 |
| COc1ccnc(C(=O)Nc2ccc3cc(Cc4ccccc4)ccc3n2)c1O [Example 14, N-(6-benzylquinolin-2-yl)-3-hydroxy-4-methoxypicolinamide] | ≥ 20 |
| CCCCCc1cc(Oc2ccc(F)cc2)nc2ccc(NC(=O)c3nccc(OC)c3O)cc12 [Example 21, N-(2-(4-fluorophenoxy)-4-pentylquinolin-6-yl)-3-hydroxy-4-methoxypicolinamide] | ≥ 20 |
| COc1ccnc(C(=O)Nc2ccc3nc(Cl)ccc3c2)c1O [Example 10, N-(2-chloroquinolin-6-yl)-3-hydroxy-4-methoxypicolinamide] | ≥ 20 |
